Test results as given in patent US20100120700A1, “METHODS AND COMPOSITIONS FOR TREATING CERVICAL CANCER” (priority 2000, published 2010).
Several values for one entry are separate records, joined by “and”; a condition that tells them apart may be missing. Equal values may be shown once.

Tests used:
Assay in all cases: G assay PDZ-PL binding
KIAA0147 domain 4 = biological target: T1, KIAA0147 domain 4 (Homo sapiens, UniProt Q14160); details: peptide 10 uM, protein 5
T1 construct: made in house; host or cells: E. coli (DH5alpha, BL21 or JM109)
Procedure, shortened: (§1)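 Specific PDZ–peptide binding is taken as replicate mean signal exceeding GST-only background by standard-error criteria. Biotinylated PL peptides (20 uM; 10 uM under G′ conditions) bind to plate-captured GST/PDZ fusion protein and are detected with streptavidin-HRP at 450 nm.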

KIAA0561 domain 1 = biological target: T2, KIAA0561 domain 1 (Homo sapiens, UniProt O60307); details: peptide 10 uM, protein 5
T2 construct: made in house; host or cells: E. coli (DH5alpha, BL21 or JM109)
Procedure, shortened: as §1

KIAA1634 domain 1 = biological target: T3, KIAA1634 domain 1 (Homo sapiens, UniProt Q5TCQ9); details: peptide 10 uM, protein 5
T3 construct: made in house; host or cells: E. coli (DH5alpha, BL21 or JM109)
Procedure, shortened: as §1

INADL domain 6 = biological target: T4, INADL domain 6 (Homo sapiens, UniProt Q8NI35, G1085V); details: peptide 10 uM, protein 5
T4 construct: made in house; host or cells: E. coli (DH5alpha, BL21 or JM109)
Procedure, shortened: as §1

NeDLG domain 2 = biological target: T5, NeDLG domain 2 (Homo sapiens, UniProt Q92796); details: vs GST only well, peptide 10 uM, protein 5
T5 construct: made in house; host or cells: E. coli (DH5alpha, BL21 or JM109)
Procedure, shortened: as §1

DLG1 domain 1 = biological target: T6, DLG1 domain 1 (Homo sapiens, UniProt Q12959, R278Q); details: vs GST only well, peptide 10 uM, protein 5
T6 construct: made in house; host or cells: E. coli (DH5alpha, BL21 or JM109)
Procedure, shortened: as §1

KIAA0973 #148.4 domain 1 = biological target: T7, KIAA0973 #148.4 domain 1 (Homo sapiens, UniProt Q9Y2H9); details: peptide 10 uM, protein 5
T7 construct: made in house; host or cells: E. coli (DH5alpha, BL21 or JM109)
Procedure, shortened: as §1

Magi2 domain 1 = biological target: T8, Magi2 domain 1 (Homo sapiens, UniProt Q86UL8); details: vs GST only well, peptide 10 uM, protein 5
T8 construct: made in house; host or cells: E. coli (DH5alpha, BL21 or JM109)
Procedure, shortened: as §1

KIAA0147 domain 1 = biological target: T9, KIAA0147 domain 1 (Homo sapiens, UniProt Q14160); details: A450 nm, peptide 10 uM, protein 5
T9 construct: made in house; host or cells: E. coli (DH5alpha, BL21 or JM109)
Procedure, shortened: as §1

APXL1 domain 1 = biological target: T10, APXL1 domain 1 (Homo sapiens, UniProt Q13796); details: peptide 10 uM, protein 5
T10 construct: made in house; host or cells: E. coli (DH5alpha, BL21 or JM109), vector pGEX-3X
Procedure, shortened: as §1

KIAA0380 #25.8 domain 1 = biological target: T11, KIAA0380 #25.8 domain 1 (Homo sapiens, UniProt O15085); details: peptide 10 uM, protein 5
T11 construct: made in house; host or cells: E. coli (DH5alpha, BL21 or JM109), vector pGEX-3X
Procedure, shortened: as §1

KIAA0316 domain 1 = biological target: T12, KIAA0316 domain 1 (Homo sapiens, UniProt Q14CM0); details: peptide 10 uM, protein 5
T12 construct: made in house; host or cells: E. coli (DH5alpha, BL21 or JM109), vector pGEX-3X
Procedure, shortened: as §1

KIAA1634 domain 5 = biological target: T13, KIAA1634 domain 5 (Homo sapiens, UniProt Q5TCQ9); details: peptide 10 uM, protein 5
T13 construct: made in house; host or cells: E. coli (DH5alpha or BL-21)
Procedure, shortened: as §1

AIPC domain 1 = biological target: T14, AIPC domain 1 (Homo sapiens, UniProt O15018); details: peptide 10 uM, protein 5
T14 construct: made in house; host or cells: E. coli (DH5alpha, BL21 or JM109), vector pGEX-3X
Procedure, shortened: as §1

T1 sequence (Q14160 1099-1203): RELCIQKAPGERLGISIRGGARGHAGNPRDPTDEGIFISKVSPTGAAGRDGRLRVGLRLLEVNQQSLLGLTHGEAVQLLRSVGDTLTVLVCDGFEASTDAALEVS
T7 sequence (Q9Y2H9 963-1055): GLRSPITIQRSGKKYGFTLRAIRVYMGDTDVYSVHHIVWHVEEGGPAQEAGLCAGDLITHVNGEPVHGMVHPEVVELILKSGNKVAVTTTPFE
T3 sequence (Q5TCQ9 401-502): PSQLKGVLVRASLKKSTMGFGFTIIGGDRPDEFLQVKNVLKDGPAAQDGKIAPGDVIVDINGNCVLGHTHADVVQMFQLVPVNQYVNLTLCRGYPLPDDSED
T10 sequence (Q13796 with tags, fused parts or gaps): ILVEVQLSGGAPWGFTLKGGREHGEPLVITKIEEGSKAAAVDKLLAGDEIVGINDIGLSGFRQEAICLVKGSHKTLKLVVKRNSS
T12 sequence (Q14CM0 72-159): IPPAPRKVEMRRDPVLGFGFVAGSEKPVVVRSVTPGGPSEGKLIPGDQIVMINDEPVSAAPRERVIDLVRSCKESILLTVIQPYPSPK
T13 sequence (Q5TCQ9 1040-1137 isoform Q5TCQ9-2): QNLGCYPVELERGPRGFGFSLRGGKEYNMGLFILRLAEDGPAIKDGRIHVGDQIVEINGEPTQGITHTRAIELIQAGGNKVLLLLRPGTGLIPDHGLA
T8 sequence (Q86UL8 408-511): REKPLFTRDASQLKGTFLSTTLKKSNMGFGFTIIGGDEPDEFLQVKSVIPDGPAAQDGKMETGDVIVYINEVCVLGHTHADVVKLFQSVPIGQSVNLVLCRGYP
T5 sequence (Q92796 with tags, fused parts or gaps): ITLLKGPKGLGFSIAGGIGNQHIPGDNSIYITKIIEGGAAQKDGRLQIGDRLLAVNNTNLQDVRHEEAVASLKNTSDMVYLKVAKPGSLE
T4 sequence (Q8NI35 with tags, fused parts or gaps G1085V): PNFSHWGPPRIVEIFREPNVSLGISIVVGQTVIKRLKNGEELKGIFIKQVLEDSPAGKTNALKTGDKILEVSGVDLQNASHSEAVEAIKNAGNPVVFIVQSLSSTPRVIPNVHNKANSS
T11 sequence (O15085 45-123): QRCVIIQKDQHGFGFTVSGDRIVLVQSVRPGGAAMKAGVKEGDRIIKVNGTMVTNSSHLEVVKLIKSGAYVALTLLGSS
T9 sequence (Q14160 with tags, fused parts or gaps): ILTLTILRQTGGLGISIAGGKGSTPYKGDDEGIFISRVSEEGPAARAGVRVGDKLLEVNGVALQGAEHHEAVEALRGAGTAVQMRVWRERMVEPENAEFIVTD
T14 sequence (O15018 with tags, fused parts or gaps): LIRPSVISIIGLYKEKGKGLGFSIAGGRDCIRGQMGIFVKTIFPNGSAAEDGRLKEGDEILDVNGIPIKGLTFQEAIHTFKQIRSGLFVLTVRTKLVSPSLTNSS
T2 sequence (O60307 with tags, fused parts or gaps): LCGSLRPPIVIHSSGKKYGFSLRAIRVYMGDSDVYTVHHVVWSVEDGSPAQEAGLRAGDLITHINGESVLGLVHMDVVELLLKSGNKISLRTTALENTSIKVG

Q: For “20 mer peptide corresponding to the C-terminus of HPV16 E6 (PDZ ligand), biotinylated in binding assays; ends SSRTRRETQL (SEQ ID NO: 13) [HPV E6 #16]”, which “Ave OD” value (KIAA0147 domain 4; A450 nm) is on record?
A: The value was 0.464 and 0.3795.

Q: And the “OD S/N” value (KIAA0147 domain 4; vs GST only well)?
A: The value was 2.17 and 2.34.

Q: And the “Ave OD” value (KIAA0561 domain 1; A450 nm)?
A: The value was 0.3475.

Q: What about the “OD S/N” value (KIAA0561 domain 1; vs GST only well) of the same substance?
A: Its value is 2.44.

Q: And the “Ave OD” value (KIAA1634 domain 1; A450 nm)?
A: The value was 3.465 and 3.336.

Q: What about the “OD S/N” value (KIAA1634 domain 1; vs GST only well) of the same substance?
A: The value was 19.04 and 19.45.

Q: What about the “Ave OD” value (INADL domain 6; A450 nm) of the same substance?
A: The value was 0.518.

Q: And the “OD S/N” value (INADL domain 6; vs GST only well)?
A: The value was 3.07.

Q: And the “OD S/N” value (NeDLG domain 2)?
A: The value was 2.20 and 3.99.

Q: And the “OD S/N” value (DLG1 domain 1)?
A: The value was 2.98 and 4.18.

Q: What about the “Ave OD” value (KIAA0973 #148.4 domain 1; A450 nm) of the same substance?
A: The value was 1.0105 and 0.6885.

Q: And the “OD S/N” value (KIAA0973 #148.4 domain 1; vs GST only well)?
A: Its value is 6.22 and 5.12.

Q: What about the “OD S/N” value (Magi2 domain 1) of the same substance?
A: Its value is 11.59 and 7.23.

Q: And the “Ave OD” value (KIAA0147 domain 1)?
A: The value was 2.1465 and 3.764.

Q: What about the “Ave OD” value (APXL1 domain 1; A450 nm) of the same substance?
A: The value was 0.4605 and 0.708.

Q: What about the “OD S/N” value (APXL1 domain 1; vs GST only well) of the same substance?
A: The value was 3.14 and 2.96.

Q: What about the “Ave OD” value (KIAA0380 #25.8 domain 1; A450 nm) of the same substance?
A: The value was 0.603.

Q: And the “OD S/N” value (KIAA0380 #25.8 domain 1; vs GST only well)?
A: The value was 3.58.

Q: What about the “Ave OD” value (KIAA0316 domain 1; A450 nm) of the same substance?
A: The value was 0.343 and 0.6125.

Q: And the “OD S/N” value (KIAA0316 domain 1; vs GST only well)?
A: Its value is 2.34 and 2.56.

Q: What about the “Ave OD” value (KIAA1634 domain 5; A450 nm) of the same substance?
A: Its value is 0.4025.

Q: What about the “OD S/N” value (KIAA1634 domain 5; vs GST only well) of the same substance?
A: Its value is 2.07.

Q: What about the “Ave OD” value (AIPC domain 1; A450 nm) of the same substance?
A: Its value is 0.5595.

Q: And the “OD S/N” value (AIPC domain 1; vs GST only well)?
A: Its value is 2.30.
